# According to US11660331B2, “Heroin vaccine” (THE SCRIPPS RESEARCH INSTITUTE, priority 2017, dated 2023):
# Tested on: anti-heroin polyclonal antibodies from Group G6
# Assay: SPR competitive binding assay, Her-BSA-loaded sensor chip (Biacore 3000)
# Design: species or system mouse
# Details: sera from Group G6 (vaccine stored as liquid at RT for 30 days)
structure (smiles),measurement,value
CN1CC[C@]23c4c5ccc(O)c4O[C@H]2[C@@H](O)C=C[C@H]3[C@H]1C5 [morphine],cross-reactivity to the polyclonal antibodies,low cross-reactivity
